# Assay results taken from ChEMBL document CHEMBL3243967, “Potential antitumor agents. 25. Azalogues of the 4'-(9-acridinylamino) methanesulfonanilides” (J Med Chem, 1977).
# Experiments:
# L1210 [1] = assay: Antitumor activity against mouse L1210 cells allografted in ip dosed mouse assessed as dose required for maximum increase in life span administered qd from day 1 to 5 of challenge; type: functional
# L1210 [2] = assay: Antitumor activity against mouse L1210 cells allografted in ip dosed mouse assessed as increase in life span at optimal dose administered qd from day 1 to 5 of challenge relative to control; type: functional
# [3] = Ionization constant, pKa of the compound in 20% DMF-buffer mixture by UV spectrophotometry; type: physicochemical
# [4] = Lipophilic-hydrophilic balance, Rm of the compound by reversed-phase partition chromatography; type: physicochemical
# [5] = Toxicity in ip dosed mouse allografted with mouse L1210 cells administered qd from day 1 to 5 of challenge; type: organism-based; conditions: in vivo
# [6] = Ionization constant, pKa of the compound at pH 7.4; type: physicochemical
pKa [6],SMILES,Activity (L1210 [1]) [mg/kg],Increase in life span (L1210 [2]) [%],pKa [3],Rm [4],MTD [5] [mg/kg]
–,CS(=O)(=O)Nc1ccc(Nc2c3ccccc3nc3ccc(N)cc23)cc1,25,78,7.15,-0.31,–
–,COc1cc(Nc2c3ccccc3nc3c([N+](=O)[O-])cccc23)ccc1NS(C)(=O)=O,75,38,5.05,0.09,–
–,COc1cc(Nc2c3ccccc3nc3ccc([N+](=O)[O-])cc23)ccc1NS(C)(=O)=O,–,–,5.63,-0.06,> 500
–,CS(=O)(=O)Nc1ccc(Nc2c3ccccc3nc3ccccc23)cc1,45,107,–,0,–
–,COc1cc(Nc2c3ccccc3nc3cc([N+](=O)[O-])ccc23)ccc1NS(C)(=O)=O,4.5,84,5.72,0.11,–
–,CS(=O)(=O)Nc1ccc(Nc2c3ccccc3nc3cc(N)ccc23)cc1,2.5,81,9.8,-0.17,–
–,CS(=O)(=O)Nc1ccc(Nc2c3ccccc3nc3ncccc23)cc1,–,–,5.93,-0.27,> 500
–,COc1cc(Nc2c3ccccc3nc3cnccc23)ccc1NS(C)(=O)=O,90,88,5.53,-0.13,–
–,COc1cc(Nc2c3ccccc3nc3ccncc23)ccc1NS(C)(=O)=O,–,–,5.84,-0.25,500
–,COc1cc(Nc2c3ccccc3nc3ncccc23)ccc1NS(C)(=O)=O,62,89,6.09,-0.07,–
3.68,CS(=O)(=O)Nc1ccc(Nc2c3ccc([N+](=O)[O-])cc3nc3cc([N+](=O)[O-])ccc23)cc1,–,–,–,–,–
–,COc1cc(Nc2c3ccccc3nc3cccnc23)ccc1NS(C)(=O)=O,–,–,7.19,-0.39,220
–,CS(=O)(=O)Nc1ccc(Nc2c3ccccc3nc3ccc([N+](=O)[O-])cc23)cc1,250,27,5.42,-0.21,–
–,CS(=O)(=O)Nc1ccc(Nc2c3ccccc3nc3cccnc23)cc1,–,–,6.9,-0.56,> 500
–,COc1cc(Nc2c3ccccc3nc3cccc([N+](=O)[O-])c23)ccc1NS(C)(=O)=O,180,44,4.98,-0.01,–
–,CS(=O)(=O)Nc1ccc(Nc2c3ccccc3nc3ccncc23)cc1,–,–,5.73,-0.39,> 500
–,CS(=O)(=O)Nc1ccc(Nc2c3ccccc3nc3cccc([N+](=O)[O-])c23)cc1,–,–,4.79,-0.09,75
–,CS(=O)(=O)Nc1ccc(Nc2c3ccccc3nc3c([N+](=O)[O-])cccc23)cc1,–,–,4.88,-0.17,> 500
–,CS(=O)(=O)Nc1ccc(Nc2c3ccccc3nc3cc([N+](=O)[O-])ccc23)cc1,25,123,5.52,-0.17,–
–,CS(=O)(=O)Nc1ccc(Nc2c3ccccc3nc3cnccc23)cc1,–,–,5.32,-0.33,> 500
